Measurements as given in patent US20200121706A1, “METHOD FOR INHIBITING MYOPIA AND APPLICATION IN PREPARING DRUG” (WENZHOU MEDICAL UNIVERSITY, priority 2017, published 2020).

Key:
Assay type in all cases: in vivo, Cavia porcellus
form-deprivation myopia = assay: Monocular form-deprivation (FD) myopia model, periocular injection; diopter by eccentric infrared photo-refractor, ocular axis parameters by A-mode ultrasound; conditions: guinea pig FD eyes, daily periocular injection, after 4 weeks
Experimental: (§1) The experimental animals used in this experiment were 3-week-old British shorthair three-colored guinea pigs (Cavia porcellus). Mask technique was used as a model of monocular form-deprivation (FD) myopia. In the myopic sclera HIF-1α expression experiment, the animals were randomly divided into three groups: the normal control group, FD 1 week group, and FD 1 week & 2-day recovery group. […] In the administration experiment, HIF-1α inhibitors salidroside and formononetin were administered to the form-deprived eyes by periocular injection to inhibit HIF-1α activity. The animals in the salidroside injection experiment were randomly divided into three groups: form-deprivation+solvent control group (FD+0.9% normal saline (NS)), form-deprivation+low concentration drug group (FD+SDS 1 μg), and form-deprivation+high concentration drug group (FD+SDS 10 μg). The animals in the formononetin injection experiment were randomly divided into three groups: form-deprivation+solvent control group (FD+DMSO), form-deprivation+low concentration drug group (FD+FMN 0.5 μg), and form-deprivation+high concentration drug group (FD+FMN 5 μg). Periocular injection of drugs was performed daily at 9 am for 4 weeks without treatment of the contralateral eyes. Before the experiment and after 2 weeks and 4 weeks of administration respectively, the diopter was measured with an eccentric infrared photo-refractor (EIR), and the ocular axis parameters such as vitreous chamber depth and ocular axis length were measured with amplitude-mode ultrasound (11 MHz). After the administration, the sclera was removed and the expression of HIF-1α and collagen type I were detected by Western Blot.

[1] = tested on: scleral hypoxia-inducible factor-1α (HIF-1α); assay: Western Blot of scleral HIF-1α after administration in form-deprived eyes; conditions: sclera removed after administration
Experimental: as §1, with “The animals in the formononetin injection experiment were randomly divided into three groups: form-deprivation+solvent control group (FD+DMSO), form-deprivation+low concentration drug group (FD+FMN 0.5 μg), and form-deprivation+high concentration drug group (FD+FMN 5 μg). Periocular injection of drugs was performed daily at 9 am for 4 weeks without treatment of the contralateral eyes.” left out

collagen type I = assay: Western Blot of scleral collagen type I after administration in form-deprived eyes; conditions: sclera removed after administration
Experimental: as §1, with “The animals in the formononetin injection experiment were randomly divided into three groups: form-deprivation+solvent control group (FD+DMSO), form-deprivation+low concentration drug group (FD+FMN 0.5 μg), and form-deprivation+high concentration drug group (FD+FMN 5 μg). Periocular injection of drugs was performed daily at 9 am for 4 weeks without treatment of the contralateral eyes.” left out

For `OC[C@H]1O[C@@H](OCCc2ccc(O)cc2)[C@H](O)[C@@H](O)[C@@H]1O` [salidroside], the “extension of ocular axis (ocular axis length difference) compared with solvent-injection group” value (form-deprivation myopia) was “relatively smaller”, the “extension of vitreous chamber (vitreous chamber depth difference) compared with solvent-injection group” value (form-deprivation myopia) was “relatively smaller” and the “myopia formation (diopter difference between experimental eyes and contralateral eyes) compared with form-deprivation solvent-injection group” value (form-deprivation myopia) was “significantly reduced”. For the same compound, the “up-regulation of HIF-1α expression in the sclera of FDM eyes” value [1] was “inhibited” and the “down-regulation of collagen (type I) expression in the sclera of FDM eyes” value (collagen type I) was “inhibited”.
